The target of one assay is T1, KDM7A (Homo sapiens, UniProt Q6ZMT4).
T1 construct: isolated enzyme
T1 sequence (Q6ZMT4 1-941): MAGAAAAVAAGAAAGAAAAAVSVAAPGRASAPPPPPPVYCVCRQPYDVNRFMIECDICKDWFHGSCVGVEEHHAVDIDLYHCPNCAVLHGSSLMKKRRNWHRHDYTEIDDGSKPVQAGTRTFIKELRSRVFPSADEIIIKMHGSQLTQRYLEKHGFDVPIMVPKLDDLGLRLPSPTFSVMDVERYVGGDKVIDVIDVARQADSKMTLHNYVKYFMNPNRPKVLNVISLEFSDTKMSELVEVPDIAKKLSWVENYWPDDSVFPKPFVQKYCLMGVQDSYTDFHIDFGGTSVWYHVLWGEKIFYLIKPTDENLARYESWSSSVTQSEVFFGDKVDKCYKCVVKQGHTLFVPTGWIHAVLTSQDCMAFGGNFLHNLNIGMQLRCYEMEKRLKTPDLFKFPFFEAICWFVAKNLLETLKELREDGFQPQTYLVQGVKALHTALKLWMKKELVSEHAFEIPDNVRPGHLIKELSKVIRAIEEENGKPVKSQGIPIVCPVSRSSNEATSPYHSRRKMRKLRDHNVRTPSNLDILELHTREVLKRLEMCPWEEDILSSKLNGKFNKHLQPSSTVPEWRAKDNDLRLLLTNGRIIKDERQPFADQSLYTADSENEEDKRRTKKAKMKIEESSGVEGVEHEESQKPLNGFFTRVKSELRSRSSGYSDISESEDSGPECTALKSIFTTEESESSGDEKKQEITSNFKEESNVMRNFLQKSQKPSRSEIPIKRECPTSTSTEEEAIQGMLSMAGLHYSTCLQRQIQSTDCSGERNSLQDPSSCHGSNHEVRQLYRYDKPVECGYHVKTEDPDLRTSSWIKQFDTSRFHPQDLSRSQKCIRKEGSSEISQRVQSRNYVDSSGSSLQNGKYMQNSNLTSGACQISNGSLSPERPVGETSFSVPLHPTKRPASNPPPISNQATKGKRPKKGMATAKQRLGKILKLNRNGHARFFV
The assay can be described thus: AlphaScreen demethylase assay. The class given is biochemical.

A further assay has as its target T2, SGF29 (Homo sapiens, UniProt Q96ES7).
T2 sequence (Q96ES7 1-293): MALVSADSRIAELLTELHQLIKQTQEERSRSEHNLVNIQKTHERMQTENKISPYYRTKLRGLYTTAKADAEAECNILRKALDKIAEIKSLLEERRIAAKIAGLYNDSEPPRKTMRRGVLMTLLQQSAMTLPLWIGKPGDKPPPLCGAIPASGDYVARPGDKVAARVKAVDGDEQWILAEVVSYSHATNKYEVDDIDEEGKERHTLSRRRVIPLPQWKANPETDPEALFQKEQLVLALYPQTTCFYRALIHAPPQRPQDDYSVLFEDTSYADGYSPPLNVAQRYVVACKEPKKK
In words: biochemical. The arrangement: AlphaScreen peptide displacement assay, methyl-lysine reader domains. Particulars: read-out: IC50 reader domains, AlphaScreen. Here is the method: (§1) S106 1.76 1.63 2.01 133 2.78 6.13 6.23 3.55 2.63 1.75 1.31 Table S-3: Summary of indoles tested. IC50 values correspond to KDM2A inhibition by AlphaScreen. 3.2 Selectivity-screening against other epigenetic writer and reader proteins Methyl-Lysine Reader domain assays. Fluorescence polarisation assays for methyl-lysine reader domains were carried out as described. AlphaScreen peptide displacement assays were performed according to manufacturer’s protocol (PerkinElmer, USA) with minor modifications. All reagents were diluted in 25 mM HEPES, 100 mM NaCl, 0.1 % BSA, pH 7.4 and 0.05 % CHAPS and allowed to equilibrate to room temperature prior to addition to plates. An 11-point 1:2.0
A general note: In Alpha technology, singlet oxygen from a donor bead excites a nearby acceptor bead.

In another assay the target is SPIN1 (Homo sapiens, UniProt Q9Y657). In words: biochemical. Particulars: read-out: IC50 reader domains, AlphaScreen. The arrangement: AlphaScreen peptide displacement assay, methyl-lysine reader domains. Here is the method: as §1
Sequence of SPIN1 (Q9Y657 whole entry, the tested form may be a part): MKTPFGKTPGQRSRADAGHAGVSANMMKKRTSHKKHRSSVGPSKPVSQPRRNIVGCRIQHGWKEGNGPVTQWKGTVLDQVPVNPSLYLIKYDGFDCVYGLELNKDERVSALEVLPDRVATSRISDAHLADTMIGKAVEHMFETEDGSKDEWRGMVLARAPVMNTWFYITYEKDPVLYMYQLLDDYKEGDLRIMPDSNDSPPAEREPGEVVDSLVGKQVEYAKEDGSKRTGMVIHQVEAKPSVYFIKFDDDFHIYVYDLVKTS
The target in a further assay is CHD1 (Homo sapiens, UniProt O14646). The assay can be described thus: biochemical. Particulars: read-out: IC50 reader domains, AlphaScreen. The arrangement: AlphaScreen peptide displacement assay, methyl-lysine reader domains. The procedure:
as §1

A further assay has as its target T3, KDM4A Tudor domain (Homo sapiens, UniProt O75164).
T3 construct: Tudor domain
T3 sequence (O75164 1-1064): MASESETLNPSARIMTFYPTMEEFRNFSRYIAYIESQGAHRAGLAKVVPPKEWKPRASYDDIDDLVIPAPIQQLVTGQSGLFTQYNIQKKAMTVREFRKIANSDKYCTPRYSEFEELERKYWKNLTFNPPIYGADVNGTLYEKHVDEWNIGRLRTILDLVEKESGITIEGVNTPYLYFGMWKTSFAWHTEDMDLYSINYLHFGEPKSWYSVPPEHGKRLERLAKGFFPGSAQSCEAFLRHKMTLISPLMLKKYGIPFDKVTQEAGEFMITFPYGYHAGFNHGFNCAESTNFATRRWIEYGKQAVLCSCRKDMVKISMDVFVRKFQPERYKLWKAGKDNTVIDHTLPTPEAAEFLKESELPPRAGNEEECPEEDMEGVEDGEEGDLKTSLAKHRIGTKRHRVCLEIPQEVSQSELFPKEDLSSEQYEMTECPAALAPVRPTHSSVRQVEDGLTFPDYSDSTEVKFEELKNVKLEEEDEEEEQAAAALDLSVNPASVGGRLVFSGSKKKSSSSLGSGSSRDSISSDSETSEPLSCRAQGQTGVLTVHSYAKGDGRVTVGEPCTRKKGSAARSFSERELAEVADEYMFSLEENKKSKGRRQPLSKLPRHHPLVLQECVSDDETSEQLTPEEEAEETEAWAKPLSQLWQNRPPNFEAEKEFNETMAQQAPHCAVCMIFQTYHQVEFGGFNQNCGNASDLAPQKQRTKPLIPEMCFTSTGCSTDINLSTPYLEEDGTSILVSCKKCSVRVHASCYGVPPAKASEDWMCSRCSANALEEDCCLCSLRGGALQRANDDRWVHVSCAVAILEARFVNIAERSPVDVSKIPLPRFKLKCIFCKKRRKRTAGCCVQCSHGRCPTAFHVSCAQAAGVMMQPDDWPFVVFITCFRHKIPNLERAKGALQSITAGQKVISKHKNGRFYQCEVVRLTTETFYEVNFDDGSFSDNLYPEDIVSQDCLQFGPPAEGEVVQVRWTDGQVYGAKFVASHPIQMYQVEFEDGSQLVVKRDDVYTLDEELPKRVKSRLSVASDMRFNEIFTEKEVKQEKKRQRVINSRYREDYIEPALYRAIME
In words: biochemical. Particulars: read-out: IC50 reader domains, AlphaScreen. The arrangement: AlphaScreen peptide displacement assay, methyl-lysine reader domains. The procedure:
as §1

The next assay deals with T4, KDM7B PHD-finger domain (Homo sapiens, UniProt Q9UPP1).
T4 construct: gene PHF8; PHD-finger domain
T4 sequence (Q9UPP1 whole entry, the tested form may be a part): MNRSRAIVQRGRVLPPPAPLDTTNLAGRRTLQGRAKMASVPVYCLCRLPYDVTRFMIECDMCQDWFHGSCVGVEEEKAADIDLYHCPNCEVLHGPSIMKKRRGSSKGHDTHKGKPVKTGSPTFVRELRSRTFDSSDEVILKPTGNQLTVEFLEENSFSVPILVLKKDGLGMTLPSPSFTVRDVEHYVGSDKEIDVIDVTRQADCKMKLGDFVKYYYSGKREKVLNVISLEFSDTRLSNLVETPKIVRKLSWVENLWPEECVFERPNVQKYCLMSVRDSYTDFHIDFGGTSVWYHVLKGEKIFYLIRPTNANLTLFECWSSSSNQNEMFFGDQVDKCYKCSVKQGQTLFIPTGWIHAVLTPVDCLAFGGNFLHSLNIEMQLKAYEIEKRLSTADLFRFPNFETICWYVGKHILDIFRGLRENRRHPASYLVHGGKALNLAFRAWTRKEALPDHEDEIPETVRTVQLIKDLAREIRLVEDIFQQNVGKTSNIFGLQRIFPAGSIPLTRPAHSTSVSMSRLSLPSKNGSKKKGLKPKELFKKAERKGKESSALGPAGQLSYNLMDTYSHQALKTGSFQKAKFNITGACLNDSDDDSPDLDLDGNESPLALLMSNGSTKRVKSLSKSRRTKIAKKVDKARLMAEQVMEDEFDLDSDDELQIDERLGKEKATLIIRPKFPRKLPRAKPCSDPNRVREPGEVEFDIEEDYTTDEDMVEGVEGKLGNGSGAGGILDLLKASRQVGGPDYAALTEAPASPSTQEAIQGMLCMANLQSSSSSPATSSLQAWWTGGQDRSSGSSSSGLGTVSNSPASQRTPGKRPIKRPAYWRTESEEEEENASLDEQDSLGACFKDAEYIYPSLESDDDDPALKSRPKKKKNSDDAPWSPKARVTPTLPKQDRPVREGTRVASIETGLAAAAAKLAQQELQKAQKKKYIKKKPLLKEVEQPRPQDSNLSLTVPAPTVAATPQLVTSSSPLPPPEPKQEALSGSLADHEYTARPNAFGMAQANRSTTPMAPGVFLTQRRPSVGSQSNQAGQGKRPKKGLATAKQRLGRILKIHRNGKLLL
The assay can be described thus: biochemical. The arrangement: AlphaScreen peptide displacement assay, methyl-lysine reader domains. Particulars: read-out: IC50 reader domains, AlphaScreen. Here is the method: as §1

For orientation: pIC50 means the IC50 on a negative log10 scale, so that one unit is a factor of ten.

pIC50: −log10 of the molar value.

Sequence of CHD1 (O14646 whole entry, the tested form may be a part): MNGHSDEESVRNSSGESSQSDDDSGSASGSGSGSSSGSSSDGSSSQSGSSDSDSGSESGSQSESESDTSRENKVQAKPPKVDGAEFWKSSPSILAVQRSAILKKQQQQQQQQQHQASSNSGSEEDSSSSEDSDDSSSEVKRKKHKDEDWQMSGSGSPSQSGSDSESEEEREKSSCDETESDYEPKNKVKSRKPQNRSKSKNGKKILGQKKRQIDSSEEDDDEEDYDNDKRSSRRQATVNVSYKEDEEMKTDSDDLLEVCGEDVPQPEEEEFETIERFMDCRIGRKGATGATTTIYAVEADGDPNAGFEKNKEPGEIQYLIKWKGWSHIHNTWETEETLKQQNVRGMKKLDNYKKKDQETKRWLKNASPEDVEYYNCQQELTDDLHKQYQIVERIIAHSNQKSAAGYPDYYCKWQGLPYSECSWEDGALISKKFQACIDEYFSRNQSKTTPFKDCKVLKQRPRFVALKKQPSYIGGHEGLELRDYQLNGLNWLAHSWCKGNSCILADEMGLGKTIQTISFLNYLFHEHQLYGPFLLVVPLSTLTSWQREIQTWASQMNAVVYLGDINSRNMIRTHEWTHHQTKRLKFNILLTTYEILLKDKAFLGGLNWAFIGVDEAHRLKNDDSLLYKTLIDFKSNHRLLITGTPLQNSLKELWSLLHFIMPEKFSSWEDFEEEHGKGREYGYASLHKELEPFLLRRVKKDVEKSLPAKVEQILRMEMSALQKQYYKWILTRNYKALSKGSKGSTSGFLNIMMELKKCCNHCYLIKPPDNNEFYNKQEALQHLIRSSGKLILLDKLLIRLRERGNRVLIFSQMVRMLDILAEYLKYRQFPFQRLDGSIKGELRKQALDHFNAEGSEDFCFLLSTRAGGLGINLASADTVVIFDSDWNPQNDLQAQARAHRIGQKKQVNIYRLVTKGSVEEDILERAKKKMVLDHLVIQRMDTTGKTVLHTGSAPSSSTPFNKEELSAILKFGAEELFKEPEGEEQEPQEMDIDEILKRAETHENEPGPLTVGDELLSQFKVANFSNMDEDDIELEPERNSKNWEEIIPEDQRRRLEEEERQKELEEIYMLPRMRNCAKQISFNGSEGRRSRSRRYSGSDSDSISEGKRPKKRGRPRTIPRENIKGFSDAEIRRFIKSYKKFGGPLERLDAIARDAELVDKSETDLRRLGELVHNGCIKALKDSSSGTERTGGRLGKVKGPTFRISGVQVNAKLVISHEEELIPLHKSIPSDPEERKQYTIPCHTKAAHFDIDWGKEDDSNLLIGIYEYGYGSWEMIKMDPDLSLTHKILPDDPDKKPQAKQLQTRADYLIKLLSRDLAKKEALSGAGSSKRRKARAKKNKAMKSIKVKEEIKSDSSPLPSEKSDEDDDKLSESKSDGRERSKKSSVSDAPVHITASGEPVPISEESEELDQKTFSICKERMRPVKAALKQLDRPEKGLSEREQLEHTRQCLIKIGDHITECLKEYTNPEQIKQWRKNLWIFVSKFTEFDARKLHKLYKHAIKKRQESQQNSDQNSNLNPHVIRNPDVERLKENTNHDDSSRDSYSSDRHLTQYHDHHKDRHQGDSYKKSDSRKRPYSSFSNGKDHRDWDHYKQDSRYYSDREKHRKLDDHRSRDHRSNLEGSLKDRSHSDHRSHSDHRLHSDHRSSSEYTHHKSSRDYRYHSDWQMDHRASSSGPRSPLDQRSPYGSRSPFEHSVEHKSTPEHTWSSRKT

Regarding `CC(=O)N1c2ccccc2[C@@](C#N)(c2ccccc2)[C@@H]1c1cncc(CCCCCCCN2CCCC2)c1` [(S,S)-6], the negative-log IC50 (pIC50) was 6.72 against KDM7A; under 4.70 at SGF29; under 4.70 on SPIN1; under 4.70 on CHD1; under 4.70 on KDM4A Tudor domain; under 4.70 at KDM7B PHD-finger domain.

Values taken from PMC5725665, “Discovery of a Highly Selective Cell‐Active Inhibitor of the Histone Lysine Demethylases KDM2/7” (Angewandte Chemie (International Ed. in English), 2017).
